Test results: article PMC9226319, “Peripherally restricted transthyretin-based delivery system for probes and therapeutics avoiding opioid-related side effects” (Nature Communications, 2022)
Values joined by “and” are separate entries in the source; they are usually repeats but may differ in a detail not shown here. Equal values may be shown once. Read-outs that look alike come from different tables or passages of the source.

Columns and labels:
TTR in human serum = TTR in human serum (Homo sapiens, UniProt P02766); assay: TTR serum fluorescent probe exclusion (FPE) selectivity assay; format: binding; details: ligand 10 µM; for %FPE probe fluorescence: human serum, replicates
male Sprague-Dawley rats [1] = assay: Gastrointestinal (GI) transit (charcoal meal) assays; format: in vivo, rat
[2] = rat; for plasma concentration: IV 4.84 µmol/kg, individual animals
[3] = rat; for plasma concentration: SC 16 µmol/kg, individual animals
male Sprague-Dawley rats [4] = details: rat, in vivo, sc
[5] = target: T1, kappa opioid receptor (rat) (Rattus norvegicus, UniProt P34975); details: read-out: binding affinity to kappa-opioid receptor (Ki); cited from earlier work
T1 construct: Eurofins Cerep (France)

in vivo [6] = details: male, Sprague Dawley, rat, iv
in vivo [7] = details: male, Sprague Dawley, rat, iv; remark: listed apart in the source
in vivo [8] = details: male, Sprague Dawley, rat, sc
in vitro = details: human, % Cell viability, replicates

T1 sequence (P34975 whole entry): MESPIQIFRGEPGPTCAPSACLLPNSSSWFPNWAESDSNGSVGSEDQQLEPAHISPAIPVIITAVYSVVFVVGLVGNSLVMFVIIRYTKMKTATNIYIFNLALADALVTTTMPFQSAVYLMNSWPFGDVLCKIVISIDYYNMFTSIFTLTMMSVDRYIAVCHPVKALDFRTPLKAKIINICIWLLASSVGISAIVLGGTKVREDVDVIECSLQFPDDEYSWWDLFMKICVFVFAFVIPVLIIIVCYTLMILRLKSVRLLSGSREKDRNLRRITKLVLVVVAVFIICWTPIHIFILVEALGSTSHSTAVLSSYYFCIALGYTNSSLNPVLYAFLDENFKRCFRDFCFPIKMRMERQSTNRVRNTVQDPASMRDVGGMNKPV

C=CCN1CC[C@]23c4c5ccc(O)c4O[C@H]2[C@@H](OCCOCCOCCOCCOCCOCCOCCOC)CC[C@@]3(O)[C@H]1C5 [Naloxegol, reference compound]
% TTR occupancy in human serum (TTR in human serum; FPE probe 3.6 µM, 3 h reading relative to probe alone, text mean ± s.d., table replicates): 14.09% and 13.76% and 18.08% and 17.39%
%FPE probe fluorescence (TTR in human serum; time 0.000 h): 0.000%
%FPE probe fluorescence (TTR in human serum; time 0.083 h): -1.162% and 0.076% and 1.061% and 2.494%
%FPE probe fluorescence (TTR in human serum; time 0.250 h): 12.642% and 13.881% and 14.653% and 16.580%
%FPE probe fluorescence (TTR in human serum; time 0.500 h): 29.770% and 29.601% and 35.277% and 32.978%
%FPE probe fluorescence (TTR in human serum; time 1.000 h): 51.856% and 49.775% and 51.097% and 53.857%
%FPE probe fluorescence (TTR in human serum; time 1.250 h): 58.967% and 56.462% and 55.901% and 61.434%
%FPE probe fluorescence (TTR in human serum; time 1.500 h): 63.979% and 62.154% and 61.352% and 66.100%
%FPE probe fluorescence (TTR in human serum; time 1.750 h): 70.669% and 69.322% and 65.355% and 73.049%
%FPE probe fluorescence (TTR in human serum; time 2.000 h): 72.778% and 74.065% and 70.075% and 75.601%
%FPE probe fluorescence (TTR in human serum; time 2.250 h): 79.286% and 77.129% and 72.043% and 79.051%
%FPE probe fluorescence (TTR in human serum; time 2.500 h): 80.847% and 80.185% and 76.560% and 80.986%
%FPE probe fluorescence (TTR in human serum; time 2.750 h): 84.987% and 82.916% and 77.033% and 84.908%
%FPE probe fluorescence (TTR in human serum; time 3.000 h): 85.911% and 86.240% and 81.919% and 82.607%
%FPE probe fluorescence (TTR in human serum; time 3.500 h): 89.826% and 88.173% and 84.101% and 88.948%
%FPE probe fluorescence (TTR in human serum; time 3.750 h): 85.342% and 89.201% and 87.815% and 89.262%
%FPE probe fluorescence (TTR in human serum; time 4.000 h): 92.972% and 91.077% and 85.636% and 94.755%
%FPE probe fluorescence (TTR in human serum; time 4.250 h): 92.674% and 90.338% and 87.389% and 92.827%
%FPE probe fluorescence (TTR in human serum; time 4.500 h): 93.747% and 95.743% and 86.912% and 94.592%
%FPE probe fluorescence (TTR in human serum; time 4.750 h): 93.049% and 92.357% and 88.468% and 95.740%
%FPE probe fluorescence (TTR in human serum; time 5.000 h): 94.380% and 93.149% and 88.822% and 94.667%
%FPE probe fluorescence (TTR in human serum; time 5.250 h): 94.178% and 93.087% and 90.315% and 94.928%
%FPE probe fluorescence (TTR in human serum; time 5.500 h): 92.258% and 94.965% and 88.366% and 97.216%
%FPE probe fluorescence (TTR in human serum; time 5.750 h): 93.772% and 93.937% and 90.079% and 96.029%
%FPE probe fluorescence (TTR in human serum; time 6.000 h): 96.902% and 93.100% and 91.727% and 96.188%
GI transit 2.5h as % of saline group (male Sprague-Dawley rats [1]; 3.5 μmol/kg, 2.5h, individual animals (Fig.9b)): 41.7% and 40.4% and 35.2% and 39.7% and 39.3% and 42.0%
GI transit as % of saline group (male Sprague-Dawley rats [1]; rat, in vivo, sc): 39.7 ± 2.5%
plasma concentration ([2]; 0.03 h): 2193.9 nM and 2301.3 nM
plasma concentration ([2]; 0.5 h): 144.7 nM and 149.7 nM
plasma concentration ([2]; 1 h): 58 nM and 27.2 nM and 41.1 nM
plasma concentration ([2]; 2 h): 16.1 nM and 15.5 nM
plasma concentration ([2]; 4 h): 4.6 nM and 6.8 nM
plasma concentration ([2]; 6 h): 1.8 nM and 4 nM and 5.8 nM
plasma concentration ([2]; 8 h): 2.3 nM and 1.4 nM
k ([2]; single IV bolus 4.84 µmol/kg): 0.41 ± 0.06 h⁻¹
plasma concentration ([3]; 0.03 h): 247 nM and 451 nM and 135 nM
plasma concentration ([3]; 0.25 h): 1100 nM and 1090 nM
plasma concentration ([3]; 0.5 h): 1750 nM and 2300 nM
plasma concentration ([3]; 0.75 h): 1870 nM and 2090 nM
plasma concentration ([3]; 1 h): 1410 nM and 2160 nM
plasma concentration ([3]; 2 h): 517 nM and 744 nM
plasma concentration ([3]; 4 h): 95.6 nM and 149 nM and 239 nM
plasma concentration ([3]; 6 h): 19 nM and 31.8 nM and 56.3 nM
plasma concentration ([3]; 8 h): 3.9 nM and 6.7 nM and 10.6 nM
k ([3]; single SC dose 16 µmol/kg): 0.79 ± 0.02 h⁻¹
hot plate latency (male Sprague-Dawley rats [4]): 17.6 ± 4.0 s
Ki [5]: 8.7 nM
Kp (in vivo [6]; percentage CSF to plasma ratio): 0.15
Kp (in vivo [6]; percentage brain to plasma ratio): 0.29
AUC(0-inf) (in vivo [7]; 4.84 umol/kg): 0.741 ± 0.0336 µM·h
Vd (in vivo [7]; 4.84 umol/kg): 2.76 ± 0.39 L/kg
clearance (in vivo [7]; 4.84 umol/kg): 109 mL/min/kg
half-life (in vivo [7]; 4.84 umol/kg): 1.72 ± 0.27 h
concentration at 0.03 h (in vivo [7]; 4.84 µmol/kg, plasma concentration, IV 4.84 µmol/kg, 0.03 h, individual animals): 1900 nM
concentration at 0.5 h (in vivo [7]; 4.84 µmol/kg, plasma concentration, IV 4.84 µmol/kg, 0.5 h, individual animals): 206 nM
concentration at 2 h (in vivo [7]; 4.84 µmol/kg, plasma concentration, IV 4.84 µmol/kg, 2 h, individual animals): 17.8 nM
concentration at 4 h (in vivo [7]; 4.84 µmol/kg, plasma concentration, IV 4.84 µmol/kg, 4 h, individual animals): 9.2 nM
concentration at 8 h (in vivo [7]; 4.84 µmol/kg, plasma concentration, IV 4.84 µmol/kg, 8 h, individual animals): 2.5 nM
AUC(0-inf) (in vivo [8]; 16 umol/kg): 3.68 ± 0.566 µM·h
CL/F (in vivo [8]; 16 umol/kg): 72.8 mL/min/kg
Vd/F (in vivo [8]; 16 umol/kg): 5.58 ± 0.96 L/kg
half-life (in vivo [8]; 16 umol/kg): 0.88 ± 0.02 h
concentration at 0.25 h (in vivo [8]; 16 µmol/kg, plasma concentration, SC 16 µmol/kg, 0.25 h, individual animals): 1930 nM
concentration at 0.5 h (in vivo [8]; 16 µmol/kg, plasma concentration, SC 16 µmol/kg, 0.5 h, individual animals): 2470 nM
concentration at 0.75 h (in vivo [8]; 16 µmol/kg, plasma concentration, SC 16 µmol/kg, 0.75 h, individual animals): 2870 nM
concentration at 1 h (in vivo [8]; 16 µmol/kg, plasma concentration, SC 16 µmol/kg, 1 h, individual animals): 1970 nM
concentration at 2 h (in vivo [8]; 16 µmol/kg, plasma concentration, SC 16 µmol/kg, 2 h, individual animals): 548 nM
viability at 72 h, 10 µM (in vitro; 10 μM): 103%
viability at 72 h, 100 µM (in vitro; 100 μM): 99%
